Like-named read-outs stand apart in the source and are kept apart here.
Experiments:
[1] = set-up: method as in Rybczynska et al., 2006; settings: 1 mg/kg, normotensive rats; ref Rybczynska et al., 2006; cited from earlier work
SmD2 = SmD2 (Schistosoma mansoni, UniProt G4LUJ1); assay: cell-based; assay type: cell-based
[2] = system: S. mansoni schistosomulae; assay: Phenotypic primary screen assay on schistosomulae (phenotype; viability by methylene blue dye exclusion); assay type: cell-based, Schistosoma mansoni
Procedure, shortened: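 Parasites lacking contraction/relaxation cycles and showing dark internal granulations counted as dead. Movement and body shape were compared with DMSO-treated controls under a stereo microscope at 24 h and at five days of exposure. Larvae came from infected snails shed under light for 2 h at 32 °C.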

[3] = system: S. mansoni schistosomulae; assay: as above; assay type: cell-based; settings: Schistosoma mansoni; three-day-old schistosomulae, 10 μM, 24 h; calculated 5 days post compound exposure; read-out: Viability (%)
human CaSR = system: human CaSR; set-up: method as in Nemeth et al., 2001; settings: ref Nemeth et al., 2001; cited from earlier work
S. mansoni adult worms = assay: Motility assay on adult parasites (pixel displacement, relative to DMSO control); assay type: cell-based, Schistosoma mansoni; settings: 10 μM
Procedure, shortened: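 Unpaired adult worms from mice 6 weeks post-infection kept in OPTI-MEM with 5% dialyzed FBS and exposed to compounds at 1 and 10 μM for 24 h. Motility filmed 1 min at 10 frames/s, quantified by pixel displacement versus DMSO-treated worms; recovery followed up to five days after washout.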

[4] = system: S. mansoni schistosomulae; assay: Motility assay on schistosomulae (pixel displacement, relative to DMSO control); assay type: cell-based, Schistosoma mansoni; settings: for activity at 1 µM: Schistosoma mansoni, read-out: Fractional motility
Procedure, shortened: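 Mechanically transformed S. mansoni schistosomulae (200/well) in Opti-MEM with 5% dialyzed FBS were exposed to compounds at 1 and 10 μM for 24 h at 37 °C, 5% CO2. Motility filmed at 10 frames/s for 1 min and quantified by pixel displacement relative to DMSO-treated controls.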

Sequence of SmD2 (G4LUJ1 entry or part of it): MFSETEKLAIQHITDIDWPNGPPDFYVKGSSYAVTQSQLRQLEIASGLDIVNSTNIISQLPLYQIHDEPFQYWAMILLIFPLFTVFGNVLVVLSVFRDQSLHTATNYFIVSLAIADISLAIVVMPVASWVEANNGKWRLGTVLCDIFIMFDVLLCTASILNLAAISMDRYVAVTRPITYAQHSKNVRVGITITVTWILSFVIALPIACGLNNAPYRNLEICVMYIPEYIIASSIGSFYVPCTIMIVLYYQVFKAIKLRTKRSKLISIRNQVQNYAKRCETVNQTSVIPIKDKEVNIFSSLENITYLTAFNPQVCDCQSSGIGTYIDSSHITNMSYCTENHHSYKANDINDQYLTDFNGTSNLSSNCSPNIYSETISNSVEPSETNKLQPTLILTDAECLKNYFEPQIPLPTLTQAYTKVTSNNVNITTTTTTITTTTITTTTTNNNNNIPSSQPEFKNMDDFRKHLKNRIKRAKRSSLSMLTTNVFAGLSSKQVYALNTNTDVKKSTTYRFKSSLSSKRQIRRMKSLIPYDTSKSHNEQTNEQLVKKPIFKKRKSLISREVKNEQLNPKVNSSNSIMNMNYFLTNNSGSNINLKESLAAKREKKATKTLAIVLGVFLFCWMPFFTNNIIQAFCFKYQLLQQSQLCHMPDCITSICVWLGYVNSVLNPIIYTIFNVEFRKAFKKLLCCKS

For CC(C)(Cc1ccc2ccccc2c1)NC[C@@H](O)COc1cccc(Cl)c1C#N [NPS-2143], the “effect on blood pressure” value [1] is listed as “significantly increases blood pressure”, the inhibition at 10 µM (SmD2; HEK293, SmD2 cells, 10 μM compound, 50 μM EPN, read-out: inhibition of EPN-evoked luminescence) is listed as 91.1% and the IC50 (SmD2; inhibition of EPN-evoked luminescence, concentration-response assay, read-out: IC50) is listed as 2.53 ± 0.28 nM. The “effect on viability of schistosomulae in words” value ([2]; 24 h incubation, five days) was “no effect on viability”, the Phenotype ([2]; three-day-old schistosomulae, 10 μM, 24 h, estimated 5 days post compound exposure) was “big, granulated” and the viability at 10 µM [3] was 82%. For the same compound, the IC50 (human CaSR) was 43 nM, the Fractional motility (S. mansoni adult worms; adult female worms, D1) was -0.33 and the Fractional motility (S. mansoni adult worms; adult female worms, D5) was -0.92. For the same compound, the Fractional motility (S. mansoni adult worms; adult male worms, D1) was -0.52, the Fractional motility (S. mansoni adult worms; adult male worms, D5) was -0.30 and the Fractional motility (S. mansoni adult worms; secondary screen, D1, Female adult worms) was -0.33. For the same compound, the Fractional motility (S. mansoni adult worms; secondary screen, D1, Male adult worms) was -0.52, the Fractional motility (S. mansoni adult worms; secondary screen, D5, Female adult worms) was -0.92 and the Fractional motility (S. mansoni adult worms; secondary screen, D5, Male adult worms) was -0.30. The Fractional motility ([4]; 1h, D1, 10 µM) was -0.86, the Fractional motility ([4]; 1h, D5, 10 µM) was -0.00164 and the Fractional motility ([4]; 3h, D1, 10 µM) was 0.27. For the same compound, the Fractional motility ([4]; 3h, D5, 10 µM) was -0.84, the Fractional motility ([4]; 6h, D1, 10 µM) was 14.69 and the Fractional motility ([4]; 6h, D5, 10 µM) was -0.27. For the same compound, the Fractional motility ([4]; NPS-2143 and analogs, 24h, D1, 1 µM) was -0.50, the Fractional motility ([4]; NPS-2143 and analogs, 24h, D1, 10 µM) was 49.26 and the Fractional motility ([4]; NPS-2143 and analogs, 24h, D5, 1 µM) was -0.09. For the same compound, the Fractional motility ([4]; NPS-2143 and analogs, 24h, D5, 10 µM) was -0.99, the activity at 1 µM ([4]; 120 h, Selleckchem customized library secondary screen, 24h, D5, 1 µM) was -9% and the activity at 1 µM ([4]; Selleckchem customized library secondary screen, 24h, D1, 1 µM) was -50%. The Fractional motility ([4]; Selleckchem customized library secondary screen, 24h, D1, 10 µM) was 49.26, the Fractional motility ([4]; Selleckchem customized library secondary screen, 24h, D5, 10 µM) was -0.99 and the “hypermotility relative to control” value ([4]; schistosomulae, after 24 h incubation) was “up to 50 fold”. For the same compound, the “motility phenotype in words” value ([4]; schistosomulae, long-term, five days after compound washout) was “complete paralysis”.

From PMC7284125, “Identification of annotated bioactive molecules that impair motility of the blood fluke Schistosoma mansoni” (International Journal for Parasitology: Drugs and Drug …, 2020)
